For five compounds, Activity, IC50 and viability results are on record in ChEMBL document CHEMBL5154838, “A pH-Dependent rhodamine fluorophore with antiproliferative activity of bladder cancer in Vitro/Vivo and apoptosis mechanism” (Eur J Med Chem, 2022).

The structures appear in SMILES notation. pIC50: −log10 of the molar value. Active and inactive are the calls of the source. No cut-off for these calls is given here.

A short description of data set [1]: Fluorescence response in PBS solution at pH 3 to 9 assessed as higher sensitivity to fluorescence intensity at 2 uM. The data set is classed as physicochemical. The following applies: buffer, pH 3, 2 µM.
Data set [2] relates to EJ. The data set can be described thus: Antiproliferative activity against human EJ cells assessed as inhibition of colony formation at 8.34 uM measured by colony formation assay. The data set is classed as functional, cell-based.
Data set [3] deals with EJ. The data set can be described thus: Antiproliferative activity against human EJ cells after 24 hrs by CCK-8 assay. The data set is classed as functional, cell-based.
The test system of data set [4] is EJ. Description: Induction of apoptosis in human EJ cells at 22.35 uM assessed as increase in cleaved caspase-3 expression measured by Western blotting assay. The data set is classed as functional, cell-based.
For data set [5], the system named is EJ. The data set can be described thus: Antitumor activity against human EJ cells xenografted in male nude mouse assessed as decrease in PCNA expression at 22.35 uM and measured at pH 8.5 by immunohistochemistry analysis. The data set is classed as functional, cell-based.
For data set [6], the system named is EJ. Description: Antiproliferative activity against human EJ cells at pH 6.5 assessed as LDH levels at 22.35 uM after 24 hrs relative to control. The data set is classed as functional.
The subject of data set [7] is EJ. The data set can be described thus: Induction of apoptosis in human EJ cells at 22.35 uM assessed as increase in Bax expression measured by Western blotting assay. The data set is classed as functional, cell-based.
Data set [8] has as its system EJ. The data set can be described thus: Antiproliferative activity against human EJ cells at pH 7.5 assessed as cell viability at 22.35 uM after 24 hrs by CCK-8 assay relative to control. The following applies: read-out: Activity. The data set is classed as functional.
In data set [9] the test system is EJ. The data set can be described thus: Antitumor activity against human EJ cells xenografted in male nude mouse assessed as increase in cleaved caspase-9 expression at 22.35 uM and measured by Western blotting analysis. The data set is classed as functional, cell-based.
The subject of data set [10] is EJ. The data set can be described thus: Antitumor activity against human EJ cells xenografted in male nude mouse assessed as reduction in tumor weight at 22.35 uM and measured at pH 8.5. The data set is classed as functional, cell-based.
Data set [11] relates to EJ. Description: Antitumor activity against human EJ cells xenografted in male nude mouse assessed as reduction in tumor weight at 22.35 uM and measured at pH 7.5. The data set is classed as functional, cell-based.
The subject of data set [12] is EJ. The data set can be described thus: Antitumor activity against human EJ cells xenografted in male nude mouse assessed as increase in cleaved caspase-3 expression at 22.35 uM and measured by Western blotting analysis. The data set is classed as functional, cell-based.
For data set [13], the system named is EJ. The data set can be described thus: Antitumor activity against human EJ cells xenografted in male nude mouse assessed as decrease in PCNA expression at 22.35 uM and measured at pH 6.5 by immunohistochemistry analysis. The data set is classed as functional, cell-based.
A short description of data set [14]: Antiproliferative activity against human SV-HUC-1 cells after 24 hrs by CCK-8 assay. The data set is classed as functional, cell-based. The following applies: SV-HUC1, 24 h.
For data set [15], the system named is EJ. Description: Antitumor activity against human EJ cells xenografted in male nude mouse assessed as reduction in tumor volume at 22.35 uM and measured at pH 7.5. The data set is classed as functional, cell-based.
Data set [16] relates to EJ. The data set can be described thus: Antiproliferative activity against human EJ cells at pH 6.5 assessed as cell viability at 22.35 uM after 24 hrs by CCK-8 assay relative to control. The data set is classed as functional. To be noted: read-out: Activity.
Data set [17] concerns EJ. The data set can be described thus: Antitumor activity against human EJ cells xenografted in male nude mouse assessed as decrease in Ki-67 expression at 22.35 uM and measured at pH 6.5 by immunohistochemistry analysis. The data set is classed as functional, cell-based.
The subject of data set [18] is EJ. The data set can be described thus: Antitumor activity against human EJ cells xenografted in male nude mouse assessed as reduction in tumor volume at 22.35 uM and measured at pH 5.5. The data set is classed as functional, cell-based.
Data set [19] relates to EJ. Description: Antitumor activity against human EJ cells xenografted in male nude mouse assessed as decrease in Ki-67 expression at 22.35 uM and measured at pH 8.5 by immunohistochemistry analysis. The data set is classed as functional, cell-based.
Data set [20] concerns EJ. The data set can be described thus: Antitumor activity against human EJ cells xenografted in male nude mouse assessed as decrease in Ki-67 expression at 22.35 uM and measured at pH 5.5 by immunohistochemistry analysis. The data set is classed as functional, cell-based.
Data set [21] has as its system EJ. Description: Induction of apoptosis in human EJ cells at 22.35 uM assessed as increase in cleaved caspase-9 expression measured by Western blotting assay. The data set is classed as functional, cell-based.
For data set [22], the system named is EJ. The data set can be described thus: Antitumor activity against human EJ cells xenografted in male nude mouse assessed as increase in Bax expression at 22.35 uM and measured by Western blotting analysis. The data set is classed as functional, cell-based.
For data set [23], the system named is EJ. Description: Antitumor activity against human EJ cells xenografted in male nude mouse assessed as reduction in tumor volume at 22.35 uM and measured at pH 8.5. The data set is classed as functional, cell-based.
For data set [24], the system named is EJ. Description: Induction of apoptosis in human EJ cells at 22.35 uM assessed as increase in apoptosis rate measured by Annexin V-PE/7-AAD-based flow cytometry assay. The data set is classed as functional, cell-based.
In data set [25] the test system is EJ. The data set can be described thus: Antitumor activity against human EJ cells xenografted in male nude mouse assessed as reduction in tumor volume at 22.35 uM and measured at pH 6.5. The data set is classed as functional, cell-based.
Data set [26] has as its system EJ. The data set can be described thus: Antitumor activity against human EJ cells xenografted in male nude mouse assessed as decrease in Ki-67 expression at 22.35 uM and measured at pH 7.5 by immunohistochemistry analysis. The data set is classed as functional, cell-based.
Data set [27] concerns EJ. Description: Antitumor activity against human EJ cells xenografted in male nude mouse assessed as decrease in PCNA expression at 22.35 uM and measured at pH 5.5 by immunohistochemistry analysis. The data set is classed as functional, cell-based.
The test system of data set [28] is EJ. Description: Antitumor activity against human EJ cells xenografted in male nude mouse assessed as reduction in tumor weight at 22.35 uM and measured at pH 5.5. The data set is classed as functional, cell-based.
Data set [29] relates to EJ. The data set can be described thus: Antitumor activity against human EJ cells xenografted in male nude mouse assessed as reduction in tumor weight at 22.35 uM and measured at pH 6.5. The data set is classed as functional, cell-based.
Data set [30] has as its system EJ. Description: Antitumor activity against human EJ cells xenografted in male nude mouse assessed as decrease in PCNA expression at 22.35 uM and measured at pH 7.5 by immunohistochemistry analysis. The data set is classed as functional, cell-based.
Data set [31] concerns EJ. Description: Antiproliferative activity against human EJ cells assessed as inhibition of colony formation at 22.35 uM measured by colony formation assay. The data set is classed as functional, cell-based.
Data set [32] deals with EJ. The data set can be described thus: Antiproliferative activity against human EJ cells at pH 7.5 assessed as LDH levels at 22.35 uM after 24 hrs relative to control. The data set is classed as functional.

Turning to `CCNc1cc2c(cc1C)C1(c3cc(C)c(NCC)cc3O2)c2ccccc2C(=O)N1CC1CCOCC1`, in data set [1], the result was Active.
Take `CCNc1cc2c(cc1C)C1(c3cc(C)c(NCC)cc3O2)c2ccccc2C(=O)N1c1ccn([C@@H]2O[C@H](CO)[C@@H](O)C2(F)F)c(=O)n1`: the result in [1] was Active. The result with EJ [2] was Active. The compound also gave a pIC50 in the data set with EJ [3] of 5.08.
With `CCNc1cc2c(cc1C)C1(c3cc(C)c(NCC)cc3O2)c2ccccc2C(=O)N1C1CCC1`, the result in data set [1] was Active.
Consider `CCNc1cc2c(cc1C)C1(c3cc(C)c(NCC)cc3O2)c2ccccc2C(=O)N1Cc1ccccn1`, for which the outcome in the data set with EJ [4], with EJ [5], in the data set with EJ [7], in the data set on EJ [9], in the data set on EJ [10] and in the data set with EJ [11] was Active. The result in the data set on EJ [12], in the data set on EJ [13], in the data set with EJ [15], in the data set on EJ [17], with EJ [18] and in the data set with EJ [19] was Active. Further, the result with EJ [20], with EJ [21], with EJ [22], with EJ [23], with EJ [24] and with EJ [25] was Active. Also, the outcome in the data set with EJ [26], in the data set with EJ [27], in the data set on EJ [28], with EJ [29], with EJ [30] and in the data set on EJ [31] was Active. Moreover, the values for the Activity result (in data set [1]; in the data set with EJ [6]; with EJ [32]) were “Active”, 42.8% and 26.4%, respectively. Besides, the viability at 22.35 µM in the data set on EJ [8] is 83.2%; in the data set with EJ [16], 68.4%. The pIC50 in [14] was 4.59; in the data set on EJ [3], 4.65.
As for `CCNc1cc2c(cc1C)C1(c3cc(C)c(NCC)cc3O2)c2ccccc2C(=O)N1CC1CCCO1` (configuration not stated), the outcome in data set [1] was Active.
